From ChEMBL document CHEMBL1201862, “PubChem BioAssay data set” (2004)
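The compound was tested at five concentrations on cells cultured in 96-well plates, with a 48-hour exposure period. Abbreviation: GI50, concentration required for 50% inhibition of growth.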 Calls of active or inactive are those of the source. No stated cut-off is given here; in the data, active = GI50 up to about 1.1 µM and inactive = higher.

Columns and labels:
Test in all cases: growth of human tumour cells (NCI), 48 h
[1] = system: HT-29
[2] = system: Hs-578T
[3] = system: IGROV-1
[4] = system: K562
[5] = system: KM12
[6] = system: MDA-MB-435
[7] = system: MDA-N
[8] = system: MOLT-4
[9] = system: Malme-3M
[10] = system: NCI-H23
[11] = system: OVCAR-4
[12] = system: OVCAR-5
[13] = system: OVCAR-8
[14] = system: SF-295
[15] = system: SF-539
[16] = system: SK-MEL-28
[17] = system: SN12C
[18] = system: SW-620
[19] = system: UACC-257
[20] = system: SR

Measured: GI50

CC1=CC2(C)C=C[C@@H]1C(=O)[C@@]1(C)CC[C@@](O)(C(C)C)[C@H]1CC2
inactive: [1] 16.1 µM | [2] 25.4 µM | [3] 26.2 µM | [4] 20 µM | [5] 20.3 µM | [6] 20.3 µM | [7] 21.8 µM | [8] 24.8 µM | [9] 19.4 µM | [10] 19.1 µM | [11] 17.8 µM | [12] 17.9 µM | [13] 17.1 µM | [14] 16.7 µM | [15] 18.9 µM | [16] 20.9 µM | [17] 20.9 µM | [18] 18.8 µM | [19] 16.4 µM

CC(NC(=O)C(N)CC(=O)O)NC(=O)N1CCOCC1 (stereo not given)
inactive: [1] > 100 µM | [2] > 100 µM | [3] > 100 µM | [4] > 100 µM | [5] > 100 µM | [6] > 100 µM | [7] > 100 µM | [8] > 100 µM | [9] > 100 µM | [10] > 100 µM | [11] > 100 µM | [12] > 100 µM | [13] > 100 µM | [14] > 100 µM | [15] > 100 µM | [16] > 100 µM | [17] > 100 µM | [18] > 100 µM | [19] > 100 µM

Cc1ccc(S(=O)(=O)NC(=O)NC(CCC(N)=O)C(=O)O)cc1 (stereo not given)
inactive: [1] > 100 µM | [2] > 100 µM | [3] > 100 µM | [4] > 100 µM | [5] > 100 µM | [7] > 100 µM | [8] > 100 µM | [9] > 100 µM | [10] > 100 µM | [11] > 100 µM | [12] > 100 µM | [13] > 100 µM | [14] > 100 µM | [15] > 100 µM | [16] > 100 µM | [17] > 100 µM | [20] > 100 µM | [18] > 100 µM | [19] > 100 µM

COc1ccc(N(c2ccc(C#N)cc2)c2ccc(C#N)cc2)cc1
inactive: [1] 9.89 µM | [2] > 100 µM | [3] 23.7 µM | [5] 8.43 µM | [6] > 100 µM | [7] > 100 µM | [8] 5.2 µM | [10] 29.4 µM | [11] > 100 µM | [12] > 100 µM | [13] > 100 µM | [14] > 100 µM | [15] > 100 µM | [16] > 100 µM | [17] > 100 µM | [18] > 100 µM | [19] > 100 µM

CC(C)CC1[C@@H](OCc2ccccc2)COS(=O)(=O)N1Cc1ccccc1 (stereo not given in full)
inactive: [1] 38.9 µM | [2] 14.7 µM | [3] 81.7 µM | [4] 50.9 µM | [5] 20.7 µM | [6] 44.5 µM | [7] > 10 µM | [8] 73.6 µM | [9] 62.5 µM | [10] 20.7 µM | [11] > 100 µM | [12] > 100 µM | [13] > 100 µM | [14] 27.6 µM | [15] > 100 µM | [16] > 100 µM | [17] > 100 µM | [18] > 100 µM | [19] > 100 µM

COC(=O)CCC1(CCC(=O)OC)CCCCCCC(CCC(=O)OC)(CCC(=O)OC)C(=O)C1=O
inactive: [1] 60.3 µM | [2] > 100 µM | [3] > 100 µM | [4] 23.6 µM | [5] > 100 µM | [6] > 100 µM | [7] > 100 µM | [9] > 100 µM | [10] > 100 µM | [12] > 100 µM | [13] > 100 µM | [14] > 100 µM | [15] > 100 µM | [16] > 100 µM | [17] > 100 µM | [19] > 100 µM

NC(=O)NC(=O)C1CCCCC1C(=O)O (stereo not given)
inactive: [1] > 100 µM | [2] > 100 µM | [3] > 100 µM | [4] 5.11 µM | [5] > 100 µM | [6] > 100 µM | [7] > 100 µM | [9] > 100 µM | [10] > 100 µM | [11] > 100 µM | [12] > 100 µM | [13] > 100 µM | [14] > 100 µM | [15] > 100 µM | [16] > 100 µM | [17] > 100 µM | [18] > 100 µM | [19] > 100 µM

CC(C)(CO)N1C(=O)c2ccccc2C1(O)c1ccc(Cl)cc1 (stereo not given)
inactive: [1] > 100 µM | [2] > 100 µM | [3] > 100 µM | [4] > 100 µM | [5] > 100 µM | [6] > 100 µM | [7] > 100 µM | [8] > 100 µM | [9] > 100 µM | [10] > 100 µM | [11] 94 µM | [12] > 100 µM | [13] > 100 µM | [14] > 100 µM | [16] > 100 µM | [17] > 100 µM | [18] > 100 µM | [19] > 100 µM

CCC1(C)C=Cc2c(cc(OC)c3c(=O)c4ccccc4n(C)c23)O1 (stereo not given)
inactive: [1] 7.69 µM | [2] 5.6 µM | [3] > 10 µM | [4] 8.61 µM | [5] 1.5 µM | [6] > 10 µM | [7] > 10 µM | [8] > 10 µM | [9] > 10 µM | [10] > 10 µM | [11] 9.51 µM | [12] > 10 µM | [13] > 10 µM | [14] 3.56 µM | [15] 4.47 µM | [16] 9.16 µM | [17] > 10 µM | [18] > 10 µM | [19] > 10 µM

C/C(=N\n1c(Cc2ccccc2)n[nH]c1=O)c1ccccc1
inactive: [1] > 100 µM | [2] > 100 µM | [3] > 100 µM | [4] > 100 µM | [5] > 100 µM | [6] > 100 µM | [7] > 100 µM | [8] > 100 µM | [9] > 100 µM | [10] > 100 µM | [11] > 100 µM | [12] > 100 µM | [13] > 100 µM | [15] > 100 µM | [16] > 100 µM | [17] > 100 µM | [18] > 100 µM | [19] > 100 µM

O=[N+]([O-])c1ccc(N/N=C2/CC3=C2CCCCCCCCCC3)c([N+](=O)[O-])c1
inactive: [1] > 100 µM | [2] 39.3 µM | [3] > 100 µM | [4] > 100 µM | [5] > 100 µM | [6] > 100 µM | [7] > 100 µM | [8] > 100 µM | [9] > 100 µM | [10] > 100 µM | [11] > 100 µM | [12] > 100 µM | [13] > 100 µM | [14] > 100 µM | [16] > 100 µM | [17] > 100 µM | [18] > 100 µM | [19] > 100 µM
